The results in this text go back to article PMC6199744, “Development of Chemical Proteomics for the Folateome and Analysis of the Kinetoplastid Folateome” (ACS Infectious Diseases, 2018).

Like-named read-outs stand apart in the source and are kept apart here.

Format in all cases: binding
Assay [1] deals with T1, HeLa cell extract proteins (Homo sapiens, UniProt P62820).
T1 construct: endogenous in cells; host or cells: HeLa cell extract
Particulars: HeLa; protein RAB1A.

Assay [2] has as its target T2, HeLa cell extract proteins (Homo sapiens, UniProt P08865).
T2 construct: endogenous in cells; host or cells: HeLa cell extract
Particulars: HeLa; protein RPSA.

Assay [3] has as its target T3, HeLa cell extract proteins (Homo sapiens, UniProt P62333).
T3 construct: endogenous in cells; host or cells: HeLa cell extract
Particulars: protein PSMC6; HeLa.

For assay [4], the target named is T4, HeLa cell extract proteins (Homo sapiens, UniProt Q9Y6E2).
T4 construct: endogenous in cells; host or cells: HeLa cell extract
T4 sequence (Q9Y6E2 1-419): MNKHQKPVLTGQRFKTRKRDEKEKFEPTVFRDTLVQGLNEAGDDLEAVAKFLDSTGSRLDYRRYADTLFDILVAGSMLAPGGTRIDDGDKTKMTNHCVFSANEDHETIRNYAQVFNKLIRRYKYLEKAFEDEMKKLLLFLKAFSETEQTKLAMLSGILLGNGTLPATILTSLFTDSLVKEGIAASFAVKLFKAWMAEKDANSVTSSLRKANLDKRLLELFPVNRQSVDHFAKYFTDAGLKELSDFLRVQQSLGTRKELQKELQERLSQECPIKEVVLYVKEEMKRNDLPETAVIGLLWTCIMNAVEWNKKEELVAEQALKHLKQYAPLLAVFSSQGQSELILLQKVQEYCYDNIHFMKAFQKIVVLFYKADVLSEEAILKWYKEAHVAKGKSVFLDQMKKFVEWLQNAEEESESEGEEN
Particulars: HeLa; protein BZW2.

The target of assay [5] is T5, HeLa cell extract proteins (Homo sapiens, UniProt P33993).
T5 construct: endogenous in cells; host or cells: HeLa cell extract
Particulars: protein MCM7; HeLa.

Assay [6] deals with T6, HeLa cell extract proteins (Homo sapiens, UniProt Q96LA8).
T6 construct: endogenous in cells; host or cells: HeLa cell extract
Particulars: HeLa; protein PRMT6 (PROTEIN ARGININE N-METHYLTRANSFERASE 6).

The target in assay [7] is T7, HeLa cell extract proteins (Homo sapiens, UniProt P14618).
T7 construct: endogenous in cells; host or cells: HeLa cell extract
The note with it: HeLa; protein PKM2.

The target of assay [8] is T8, HeLa cell extract proteins (Homo sapiens, UniProt Q6UXN9).
T8 construct: endogenous in cells; host or cells: HeLa cell extract
The note with it: HeLa; captured protein WDR82.

For assay [9], the target named is T9, HeLa cell extract proteins (Homo sapiens, UniProt Q04837).
T9 construct: endogenous in cells; host or cells: HeLa cell extract
T9 sequence (Q04837 17-148): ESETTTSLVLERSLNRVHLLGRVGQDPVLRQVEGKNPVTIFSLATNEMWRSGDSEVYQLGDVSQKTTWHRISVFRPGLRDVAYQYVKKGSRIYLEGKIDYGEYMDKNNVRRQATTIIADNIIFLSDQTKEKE
The note with it: HeLa; protein SSBP1.

For assay [10], the target named is T10, HeLa cell extract proteins (Homo sapiens, UniProt P05455).
T10 construct: endogenous in cells; host or cells: HeLa cell extract
T10 sequence (P05455 1-408): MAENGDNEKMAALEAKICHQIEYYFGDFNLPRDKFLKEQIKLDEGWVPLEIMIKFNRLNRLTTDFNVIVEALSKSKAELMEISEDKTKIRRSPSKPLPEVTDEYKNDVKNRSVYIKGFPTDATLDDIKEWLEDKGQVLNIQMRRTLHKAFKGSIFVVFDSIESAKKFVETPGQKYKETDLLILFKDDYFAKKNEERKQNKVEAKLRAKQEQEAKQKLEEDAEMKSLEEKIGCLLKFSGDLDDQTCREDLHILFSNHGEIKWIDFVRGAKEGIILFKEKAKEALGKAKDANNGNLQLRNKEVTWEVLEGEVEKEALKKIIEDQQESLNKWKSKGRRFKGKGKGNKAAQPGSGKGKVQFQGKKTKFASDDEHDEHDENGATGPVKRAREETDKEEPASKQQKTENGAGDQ
The note with it: HeLa; protein SSB.

The target of assay [11] is T11, HeLa cell extract proteins (Homo sapiens, UniProt Q9H773).
T11 construct: endogenous in cells; host or cells: HeLa cell extract
T11 sequence (Q9H773 1-170): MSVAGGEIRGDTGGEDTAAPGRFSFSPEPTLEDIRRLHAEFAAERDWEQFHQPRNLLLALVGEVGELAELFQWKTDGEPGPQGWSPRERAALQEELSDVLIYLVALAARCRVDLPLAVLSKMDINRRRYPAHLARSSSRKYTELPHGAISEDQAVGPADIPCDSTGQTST
Particulars: HeLa.

The target in assay [12] is T12, HeLa cell extract proteins (Homo sapiens, UniProt P00505).
T12 construct: endogenous in cells; host or cells: HeLa cell extract
T12 sequence (P00505 30-430): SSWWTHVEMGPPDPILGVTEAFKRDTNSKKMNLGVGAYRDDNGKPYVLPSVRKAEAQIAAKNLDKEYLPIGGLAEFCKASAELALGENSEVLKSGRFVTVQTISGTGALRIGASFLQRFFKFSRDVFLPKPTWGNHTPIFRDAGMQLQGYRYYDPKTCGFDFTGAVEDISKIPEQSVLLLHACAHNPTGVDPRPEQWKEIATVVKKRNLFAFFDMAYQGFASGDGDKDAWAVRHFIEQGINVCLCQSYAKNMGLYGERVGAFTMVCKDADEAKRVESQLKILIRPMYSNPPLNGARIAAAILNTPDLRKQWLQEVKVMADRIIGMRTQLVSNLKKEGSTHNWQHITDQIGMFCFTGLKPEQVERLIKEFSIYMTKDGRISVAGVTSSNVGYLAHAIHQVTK
Particulars: HeLa; protein GOT2.

The target in assay [13] is T13, HeLa cell extract proteins (Homo sapiens, UniProt Q3ZCQ8).
T13 construct: endogenous in cells; host or cells: HeLa cell extract
The note with it: HeLa; protein TIMM50.

Assay [14] has as its target T14, HeLa cell extract proteins (Homo sapiens, UniProt Q9Y3F4).
T14 construct: endogenous in cells; host or cells: HeLa cell extract
T14 sequence (Q9Y3F4 1-350): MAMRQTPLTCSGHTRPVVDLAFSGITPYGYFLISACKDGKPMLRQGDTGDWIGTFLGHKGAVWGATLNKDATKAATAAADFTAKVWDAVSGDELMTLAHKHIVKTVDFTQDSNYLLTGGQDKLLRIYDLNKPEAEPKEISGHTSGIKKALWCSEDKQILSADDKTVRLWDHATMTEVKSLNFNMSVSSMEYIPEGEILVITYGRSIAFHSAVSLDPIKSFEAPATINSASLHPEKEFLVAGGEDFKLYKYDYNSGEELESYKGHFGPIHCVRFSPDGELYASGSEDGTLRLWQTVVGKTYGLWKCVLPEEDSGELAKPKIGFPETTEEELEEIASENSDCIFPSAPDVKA
The note with it: protein STRAP; HeLa.

Assay [15] has as its target T15, HeLa cell extract proteins (Homo sapiens, UniProt P35573).
T15 construct: endogenous in cells; host or cells: HeLa cell extract
The note with it: HeLa; protein AGL (PUTATIVE UNCHA[…] AGL (FRAGMENT)).

T1 sequence (P62820 whole entry): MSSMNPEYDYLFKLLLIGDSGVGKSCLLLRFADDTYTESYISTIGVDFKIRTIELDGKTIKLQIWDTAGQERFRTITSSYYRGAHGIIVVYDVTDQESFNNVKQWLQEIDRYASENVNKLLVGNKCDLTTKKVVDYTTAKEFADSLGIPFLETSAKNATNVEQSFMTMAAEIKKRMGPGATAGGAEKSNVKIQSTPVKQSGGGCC
T6 sequence (Q96LA8 whole entry): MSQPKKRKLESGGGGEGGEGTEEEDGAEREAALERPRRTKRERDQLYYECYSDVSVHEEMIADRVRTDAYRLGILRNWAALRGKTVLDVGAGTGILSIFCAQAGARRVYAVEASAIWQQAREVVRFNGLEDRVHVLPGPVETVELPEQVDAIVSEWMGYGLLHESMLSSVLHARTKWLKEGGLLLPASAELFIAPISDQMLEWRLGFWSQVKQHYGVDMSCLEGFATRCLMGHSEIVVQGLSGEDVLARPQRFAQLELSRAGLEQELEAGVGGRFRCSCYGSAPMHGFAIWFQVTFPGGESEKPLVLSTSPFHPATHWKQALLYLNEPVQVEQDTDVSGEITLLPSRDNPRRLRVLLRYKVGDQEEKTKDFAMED
T3 sequence (P62333 whole entry): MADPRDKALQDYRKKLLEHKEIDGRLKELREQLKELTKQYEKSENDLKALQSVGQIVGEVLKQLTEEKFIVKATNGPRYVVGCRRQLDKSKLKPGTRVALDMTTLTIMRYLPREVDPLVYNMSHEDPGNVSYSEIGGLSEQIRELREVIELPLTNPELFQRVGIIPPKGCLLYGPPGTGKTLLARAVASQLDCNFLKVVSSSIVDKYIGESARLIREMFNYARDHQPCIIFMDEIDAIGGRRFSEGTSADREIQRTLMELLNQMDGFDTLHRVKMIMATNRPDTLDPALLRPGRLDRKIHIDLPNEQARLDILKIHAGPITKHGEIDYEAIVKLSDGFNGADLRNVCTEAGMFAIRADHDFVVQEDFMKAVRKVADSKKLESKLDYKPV
T8 sequence (Q6UXN9 whole entry): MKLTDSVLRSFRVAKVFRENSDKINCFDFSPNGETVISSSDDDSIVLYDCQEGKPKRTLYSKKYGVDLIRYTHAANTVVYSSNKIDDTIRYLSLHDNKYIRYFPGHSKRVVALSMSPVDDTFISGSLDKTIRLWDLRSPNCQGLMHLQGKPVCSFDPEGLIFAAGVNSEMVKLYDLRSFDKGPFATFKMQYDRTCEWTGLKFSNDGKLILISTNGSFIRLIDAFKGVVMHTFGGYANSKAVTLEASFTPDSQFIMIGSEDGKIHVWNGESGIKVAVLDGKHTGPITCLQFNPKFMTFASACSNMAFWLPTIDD
T15 sequence (P35573 whole entry): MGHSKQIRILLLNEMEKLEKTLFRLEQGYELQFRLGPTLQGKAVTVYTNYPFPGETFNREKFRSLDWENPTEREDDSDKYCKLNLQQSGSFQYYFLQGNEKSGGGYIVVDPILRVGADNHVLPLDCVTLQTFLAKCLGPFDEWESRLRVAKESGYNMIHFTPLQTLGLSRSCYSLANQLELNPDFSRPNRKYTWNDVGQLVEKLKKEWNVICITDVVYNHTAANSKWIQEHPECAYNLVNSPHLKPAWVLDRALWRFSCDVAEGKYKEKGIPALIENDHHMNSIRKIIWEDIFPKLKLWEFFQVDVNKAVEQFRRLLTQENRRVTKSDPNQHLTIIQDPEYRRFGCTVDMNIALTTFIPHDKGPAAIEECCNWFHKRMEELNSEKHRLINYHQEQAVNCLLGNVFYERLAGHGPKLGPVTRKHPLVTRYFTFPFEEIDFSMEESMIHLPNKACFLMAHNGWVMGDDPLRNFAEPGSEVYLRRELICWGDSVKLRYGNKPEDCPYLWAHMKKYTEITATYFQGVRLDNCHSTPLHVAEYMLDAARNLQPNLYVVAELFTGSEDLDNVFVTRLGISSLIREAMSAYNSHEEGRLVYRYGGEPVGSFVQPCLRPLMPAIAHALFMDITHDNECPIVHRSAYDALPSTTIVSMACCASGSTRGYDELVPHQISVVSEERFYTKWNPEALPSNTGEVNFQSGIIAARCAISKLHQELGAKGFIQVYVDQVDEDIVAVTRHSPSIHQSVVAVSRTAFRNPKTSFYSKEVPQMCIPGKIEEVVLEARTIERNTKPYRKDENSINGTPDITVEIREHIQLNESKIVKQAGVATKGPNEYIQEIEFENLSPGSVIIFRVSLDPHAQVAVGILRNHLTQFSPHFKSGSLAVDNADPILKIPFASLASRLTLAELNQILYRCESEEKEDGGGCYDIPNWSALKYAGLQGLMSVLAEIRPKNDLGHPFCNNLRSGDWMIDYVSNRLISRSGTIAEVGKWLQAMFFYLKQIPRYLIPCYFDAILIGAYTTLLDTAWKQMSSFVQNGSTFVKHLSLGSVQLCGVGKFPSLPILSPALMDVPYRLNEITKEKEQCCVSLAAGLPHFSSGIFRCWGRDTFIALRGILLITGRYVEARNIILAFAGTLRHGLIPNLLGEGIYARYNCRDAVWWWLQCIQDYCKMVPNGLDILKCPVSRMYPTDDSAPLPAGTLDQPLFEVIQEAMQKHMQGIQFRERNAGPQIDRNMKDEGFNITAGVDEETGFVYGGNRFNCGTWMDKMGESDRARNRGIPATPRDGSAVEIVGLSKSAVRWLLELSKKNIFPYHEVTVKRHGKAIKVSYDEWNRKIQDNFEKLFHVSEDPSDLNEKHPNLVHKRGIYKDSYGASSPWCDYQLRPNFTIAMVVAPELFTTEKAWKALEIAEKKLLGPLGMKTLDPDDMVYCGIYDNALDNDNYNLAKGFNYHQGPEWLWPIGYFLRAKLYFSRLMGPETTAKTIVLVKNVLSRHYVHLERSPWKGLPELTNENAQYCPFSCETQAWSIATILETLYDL
T5 sequence (P33993 whole entry): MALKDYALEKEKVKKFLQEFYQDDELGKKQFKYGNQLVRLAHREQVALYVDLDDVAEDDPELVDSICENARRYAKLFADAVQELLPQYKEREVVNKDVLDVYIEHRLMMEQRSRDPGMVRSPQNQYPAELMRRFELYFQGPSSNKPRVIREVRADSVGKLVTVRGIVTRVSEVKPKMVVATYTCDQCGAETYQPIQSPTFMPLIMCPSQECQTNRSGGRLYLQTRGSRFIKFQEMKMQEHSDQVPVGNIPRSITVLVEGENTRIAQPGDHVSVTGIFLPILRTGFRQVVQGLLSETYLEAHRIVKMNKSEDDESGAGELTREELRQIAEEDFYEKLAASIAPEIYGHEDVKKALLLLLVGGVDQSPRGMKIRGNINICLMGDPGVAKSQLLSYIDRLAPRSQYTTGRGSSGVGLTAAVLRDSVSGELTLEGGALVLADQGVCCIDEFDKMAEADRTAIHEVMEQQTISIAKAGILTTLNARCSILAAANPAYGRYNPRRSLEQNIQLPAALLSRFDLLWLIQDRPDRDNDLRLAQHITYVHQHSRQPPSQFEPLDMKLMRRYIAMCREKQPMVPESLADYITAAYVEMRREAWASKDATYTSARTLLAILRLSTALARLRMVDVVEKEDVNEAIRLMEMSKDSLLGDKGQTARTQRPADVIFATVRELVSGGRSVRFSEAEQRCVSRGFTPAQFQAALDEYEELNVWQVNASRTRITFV
T7 sequence (P14618 whole entry): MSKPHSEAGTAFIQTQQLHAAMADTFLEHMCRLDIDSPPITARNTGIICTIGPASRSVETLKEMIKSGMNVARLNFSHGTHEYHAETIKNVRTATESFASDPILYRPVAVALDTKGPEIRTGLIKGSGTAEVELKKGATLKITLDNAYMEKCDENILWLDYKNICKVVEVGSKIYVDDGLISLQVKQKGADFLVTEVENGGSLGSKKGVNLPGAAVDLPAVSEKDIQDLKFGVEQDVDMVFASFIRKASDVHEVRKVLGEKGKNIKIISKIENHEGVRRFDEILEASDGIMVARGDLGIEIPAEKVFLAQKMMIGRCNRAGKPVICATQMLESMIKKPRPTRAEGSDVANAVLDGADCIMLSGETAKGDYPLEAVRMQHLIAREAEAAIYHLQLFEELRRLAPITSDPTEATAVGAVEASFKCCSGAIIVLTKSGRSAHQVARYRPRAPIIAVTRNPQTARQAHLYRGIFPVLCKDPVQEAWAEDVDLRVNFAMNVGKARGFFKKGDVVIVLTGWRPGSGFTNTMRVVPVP
T13 sequence (Q3ZCQ8 45-353): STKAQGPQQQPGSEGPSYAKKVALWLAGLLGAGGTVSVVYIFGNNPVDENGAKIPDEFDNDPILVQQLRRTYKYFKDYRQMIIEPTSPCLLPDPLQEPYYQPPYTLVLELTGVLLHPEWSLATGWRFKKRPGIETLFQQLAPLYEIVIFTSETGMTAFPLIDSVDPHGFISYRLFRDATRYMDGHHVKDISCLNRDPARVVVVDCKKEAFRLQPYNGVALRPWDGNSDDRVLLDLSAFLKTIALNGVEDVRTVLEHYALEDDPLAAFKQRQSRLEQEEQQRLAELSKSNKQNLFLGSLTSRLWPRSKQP

For the compound `NCCOCCOCC(=O)Nc1nc2ncc(CNc3ccc(C(=O)NC(CCC(=O)O)C(=O)O)cc3)nc2c(=O)[nH]1` (stereo not drawn) [compound 6], the “fold changes relative to vehicle control” value was 1.21 in [1]; 0.97 in [2]; 1.07 in [3]; 1.1 in assay [4]; 1.16 in [5]; 0.93 in [6]. Also, the “fold changes relative to vehicle control” value in [7] was found to be 1.29; in [8], 0.89; in assay [9], 0.96; in assay [10], 1.31; in [11] (protein XTP3TPA (XTP3-TRANSACTIVATED GENE A PROTEIN)), 0.51; in assay [12], 1.16. Moreover, the “fold changes relative to vehicle control” value came to 0.96 in assay [13], 1.08 in [14] and 1.09 in [15].

Regarding `NCCCNc1ccc(C(=O)NC(CCC(=O)O)C(=O)O)cc1` (stereo not drawn) [compound 7], the “fold changes relative to vehicle control” value in assay [1] was 1.07; in assay [2], 0.84; in [3], 0.96; in [4], 1.12; in [5] it was 1.14; in assay [6], 1.01. Moreover, the “fold changes relative to vehicle control” value in [7] was 0.94; in [8] it was 0.97; in assay [9], 0.95; in assay [10], 0.99; in [11] (protein XTP3TPA (XTP3-TRAN[…] A PROTEIN)), 1.21; in assay [12], 0.94. Besides, the entries for the “fold changes relative to vehicle control” value in assay [13], in assay [14] and in assay [15] were 0.97, 0.86 and 1.17, respectively.
